The assay relates to mutant Huntington (HTT) protein. Kind of assay: HTT Mutant HTRF iPSC assay (mHTT protein lowering). The assay is classed as cell-based. Particulars: human iPSC derived from a HTT patient with a poly-Q49 mutation. (In TR-FRET formats the signal depends on donor and acceptor labels being close together.)

What is called IC50 is the concentration needed to halve the response being measured. Read a low IC50 as greater potency.

`Cc1cn2nc(-c3cc(F)c4[nH]c(C5CCC6(CC5)CNC6)nc4c3)cc(C)c2n1` [Compound 424, 6-(7-fluoro-2-(2-azaspiro[3.5]nonan-7-yl)-1H-benzo[d]imidazol-5-yl)-2,8-dimethylimidazo[1,2-b]pyridazine] returned a concentration for half-maximal inhibition (IC50) of 100 to 1000 nM.
Under `CCN1CCC(c2nc3cc(-c4cc(C)c5nc(C)cn5n4)cc(F)c3[nH]2)CC1` [Compound 425, 6-(2-(1-ethylpiperidin-4-yl)-7-fluoro-1H-benzo[d]imidazol-5-yl)-2,8-dimethylimidazo[1,2-b]pyridazine] stands 100 to 1000 nM; under `Cc1cn2nc(-c3cc(F)c4[nH]c(C5CCN(C6CCC6)CC5)nc4c3)cc(C)c2n1` [Compound 426, 6-(2-(1-cyclobutylpiperidin-4-yl)-7-fluoro-1H-benzo[d]imidazol-5-yl)-2,8-dimethylimidazo[1,2-b]pyridazine], less than 100 nM; under `Cc1cn2nc(-c3cc(F)c4[nH]c(C5CCN(C6CCCC6)CC5)nc4c3)cc(C)c2n1` [Compound 427, 6-(2-(1-cyclopentylpiperidin-4-yl)-7-fluoro-1H-benzo[d]imidazol-5-yl)-2,8-dimethylimidazo[1,2-b]pyridazine], less than 100 nM.
The result for `Cc1cn2nc(-c3cc(F)c4[nH]c(C5CC6CCC(C5)N6)nc4c3)cc(C)c2n1` (centres unmarked) [Compound 428, 6-(2-(8-azabicyclo[3.2.1]octan-3-yl)-7-fluoro-1H-benzo[d]imidazol-5-yl)-2,8-dimethylimidazo[1,2-b]pyridazine] reads less than 100 nM; that for `Cc1cn2nc(-c3cc(F)c4[nH]c(C5C6CNCC65)nc4c3)cc(C)c2n1` (centres unmarked) [Compound 429, 6-(2-(3-azabicyclo[3.1.0]hexan-6-yl)-7-fluoro-1H-benzo[d]imidazol-5-yl)-2,8-dimethylimidazo[1,2-b]pyridazine], less than 100 nM.
In turn, `Cc1cn2nc(-c3cc(F)c4[nH]c(C5C6CN(C)CC65)nc4c3)cc(C)c2n1` (centres unmarked) [Compound 430, 6-(7-fluoro-2-(3-methyl-3-azabicyclo[3.1.0]hexan-6-yl)-1H-benzo[d]imidazol-5-yl)-2,8-dimethylimidazo[1,2-b]pyridazine] yielded an IC50 of less than 100 nM.
For the compound `Cc1cn2cc(-c3cc(F)c4nc(C5CCNCC5)nn4c3)cc2c(C)n1` [Compound 431, 6-(1,3-dimethylpyrrolo[1,2-a]pyrazin-7-yl)-8-fluoro-2-(piperidin-4-yl)-[1,2,4]triazolo[1,5-a]pyridine], the IC50 fell in the range of 100 to 1000 nM.
Under `Cc1cc(-c2cc(F)c3nc(C4CCNCC4)nn3c2)cc2cn(C)nc12` [Compound 432, 6-(2,7-dimethyl-2H-indazol-5-yl)-8-fluoro-2-(piperidin-4-yl)-[1,2,4]triazolo[1,5-a]pyridine] stands 100 to 1000 nM; under `Cc1cn2nc(-c3cc(F)c4nc(C5CCN(C6CC6)CC5)nn4c3)cc(C)c2n1` [Compound 433, 2-(1-cyclopropylpiperidin-4-yl)-6-(2,8-dimethylimidazo[1,2-b]pyridazin-6-yl)-8-fluoro-[1,2,4]triazolo[1,5-a]pyridine], 100 to 1000 nM.
Regarding `Cc1cn2nc(-c3cc(F)c4nc(C5CCN(C)CC5)nn4c3)cc(C)c2n1` [Compound 434, 6-(2,8-dimethylimidazo[1,2-b]pyridazin-6-yl)-8-fluoro-2-(1-methylpiperidin-4-yl)-[1,2,4]triazolo[1,5-a]pyridine], the IC50 lay in the range of 100 to 1000 nM.
Compound `CCN1CCC(c2nc3c(F)cc(-c4cc(C)c5nc(C)cn5n4)cn3n2)CC1` [Compound 435, 6-(2,8-dimethylimidazo[1,2-b]pyridazin-6-yl)-2-(1-ethylpiperidin-4-yl)-8-fluoro-[1,2,4]triazolo[1,5-a]pyridine] showed an IC50 of 100 to 1000 nM.
For `Cc1cn2nc(-c3cc(F)c4nc(C5CCN(CC(C)(C)C)CC5)nn4c3)cc(C)c2n1` [Compound 436, 6-(2,8-dimethylimidazo[1,2-b]pyridazin-6-yl)-8-fluoro-2-(1-neopentylpiperidin-4-yl)-[1,2,4]triazolo[1,5-a]pyridine], the IC50 was 100 to 1000 nM.
`Cc1cn2nc(-c3cc(F)c4nc(C5CCN(C6CCC6)CC5)nn4c3)cc(C)c2n1` [Compound 437, 2-(1-cyclobutylpiperidin-4-yl)-6-(2,8-dimethylimidazo[1,2-b]pyridazin-6-yl)-8-fluoro-[1,2,4]triazolo[1,5-a]pyridine] yielded a half-inhibitory concentration (IC50) of 100 to 1000 nM.
For `Cc1cn2nc(-c3cc(F)c4nc(C5CCN(CC6CC6)CC5)nn4c3)cc(C)c2n1` [Compound 438, 2-(1-(cyclopropylmethyl)piperidin-4-yl)-6-(2,8-dimethylimidazo[1,2-b]pyridazin-6-yl)-8-fluoro-[1,2,4]triazolo[1,5-a]pyridine], the IC50 lay in the range of 100 to 1000 nM.
`COCCN1CCC(c2nc3c(F)cc(-c4cc(C)c5nc(C)cn5n4)cn3n2)CC1` [Compound 439, 6-(2,8-dimethylimidazo[1,2-b]pyridazin-6-yl)-8-fluoro-2-[1-(2-methoxyethyl)-4-piperidyl]-[1,2,4]triazolo[1,5-a]pyridine] displayed an IC50 of 100 to 1000 nM.
In the case of `Cc1cn2nc(-c3cc(F)c4nc(CC5CNC5)nn4c3)cc(C)c2n1` [Compound 440, 2-(azetidin-3-ylmethyl)-6-(2,8-dimethylimidazo[1,2-b]pyridazin-6-yl)-8-fluoro-[1,2,4]triazolo[1,5-a]pyridine], the IC50 fell in the range of 100 to 1000 nM.
For the compound `Cc1cn2nc(-c3cc(F)c4nc(C5CCN(Cc6ncccn6)CC5)nn4c3)cc(C)c2n1` [Compound 441, 6-(2,8-dimethylimidazo[1,2-b]pyridazin-6-yl)-8-fluoro-2-(1-(pyrimidin-2-ylmethyl)piperidin-4-yl)-[1,2,4]triazolo[1,5-a]pyridine], the IC50 lay in the range of 100 to 1000 nM.
`Cc1cn2nc(-c3cc(F)c4nc(C5CC6(CNC6)C5)nn4c3)cc(C)c2n1` [Compound 442, 6-(2,8-dimethylimidazo[1,2-b]pyridazin-6-yl)-8-fluoro-2-(2-azaspiro[3.3]heptan-6-yl)-[1,2,4]triazolo[1,5-a]pyridine] yielded an IC50 of 100 to 1000 nM.
Turning to `Cc1cn2nc(-c3cc(F)c4nc([C@H]5[C@@H]6CNC[C@@H]65)nn4c3)cc(C)c2n1` [Compound 443, 2-[(1R,5S)-3-azabicyclo[3.1.0]hexan-6-yl]-6-(2,8-dimethylimidazo[1,2-b]pyridazin-6-yl)-8-fluoro-[1,2,4]triazolo[1,5-a]pyridine], the IC50 is less than 100 nM.
Under `Cc1cn2nc(-c3cc(F)c4nc(C5CCN(CC6CCC6)CC5)nn4c3)cc(C)c2n1` [Compound 444, 2-(1-(cyclobutylmethyl)piperidin-4-yl)-6-(2,8-dimethylimidazo[1,2-b]pyridazin-6-yl)-8-fluoro-[1,2,4]triazolo[1,5-a]pyridine] stands 100 to 1000 nM; under `Cc1cn2nc(-c3cc(F)c4nc(C5CCC(C)(C)NC5)nn4c3)cc(C)c2n1` (centres unmarked) [Compound 445, 6-(2,8-dimethylimidazo[1,2-b]pyridazin-6-yl)-2-(6,6-dimethylpiperidin-3-yl)-8-fluoro-[1,2,4]triazolo[1,5-a]pyridine], 100 to 1000 nM; under `Cc1cn2nc(-c3cc(F)c4nc(CC5CNCCO5)nn4c3)cc(C)c2n1` (centres unmarked) [Compound 446, 2-((6-(2,8-dimethylimidazo[1,2-b]pyridazin-6-yl)-8-fluoro-[1,2,4]triazolo[1,5-a]pyridin-2-yl)methyl)morpholine], 100 to 1000 nM.
Take `Cc1cn2nc(-c3cc(F)c4nc(C5CCC(N(C)C)CC5)nn4c3)cc(C)c2n1` (centres unmarked) [Compound 447, 4-(6-(2,8-dimethylimidazo[1,2-b]pyridazin-6-yl)-8-fluoro-[1,2,4]triazolo[1,5-a]pyridin-2-yl)-N,N-dimethylcyclohexan-1-amine]: the IC50 is 100 to 1000 nM.
As for `Cc1cn2nc(-c3cc(F)c4nc(CC5CCN(C)CC5)nn4c3)cc(C)c2n1` [Compound 448, 6-(2,8-dimethylimidazo[1,2-b]pyridazin-6-yl)-8-fluoro-2-((1-methylpiperidin-4-yl)methyl)-[1,2,4]triazolo[1,5-a]pyridine], the IC50 fell in the range of 100 to 1000 nM.
Under `Cc1cn2nc(-c3cc(F)c4nc(C[C@H]5C[C@H](N)C5)nn4c3)cc(C)c2n1` [Compound 449, (1r,3r)-3-((6-(2,8-dimethylimidazo[1,2-b]pyridazin-6-yl)-8-fluoro-[1,2,4]triazolo[1,5-a]pyridin-2-yl)methyl)cyclobutan-1-amine] stands 100 to 1000 nM; under `Cc1cn2nc(-c3cc(F)c4nc(C[C@H]5C[C@@H](N)C5)nn4c3)cc(C)c2n1` [Compound 450, (1s,3s)-3-((6-(2,8-dimethylimidazo[1,2-b]pyridazin-6-yl)-8-fluoro-[1,2,4]triazolo[1,5-a]pyridin-2-yl)methyl)cyclobutan-1-amine], 100 to 1000 nM; under `Cc1cn2nc(-c3cc(F)c4nc([C@H]5CC[C@]6(CCNC6)CC5)nn4c3)cc(C)c2n1` [Compound 451, (5s,8s)-8-(6-(2,8-dimethylimidazo[1,2-b]pyridazin-6-yl)-8-fluoro-[1,2,4]triazolo[1,5-a]pyridin-2-yl)-2-azaspiro[4.5]decane], 100 to 1000 nM.
Consider `Cc1cn2nc(-c3cc(F)c4nc([C@H]5CC[C@@]6(CCNC6)CC5)nn4c3)cc(C)c2n1` [Compound 452, (5r,8r)-8-(6-(2,8-dimethylimidazo[1,2-b]pyridazin-6-yl)-8-fluoro-[1,2,4]triazolo[1,5-a]pyridin-2-yl)-2-azaspiro[4.5]decane], for which the IC50 fell in the range of 100 to 1000 nM.
Turning to `Cc1cn2nc(-c3cc(F)c4nc([C@H]5[C@@H]6CN(C)C[C@@H]65)nn4c3)cc(C)c2n1` [Compound 453, 6-(2,8-dimethylimidazo[1,2-b]pyridazin-6-yl)-8-fluoro-2-[(1S,5R)-3-methyl-3-azabicyclo[3.1.0]hexan-6-yl]-[1,2,4]triazolo[1,5-a]pyridine], the half-inhibitory concentration (IC50) lay in the range of 100 to 1000 nM.
Under `Cc1cn2nc(-c3cc(F)c4nc(C5CCNC6(CC6)C5)nn4c3)cc(C)c2n1` (centres unmarked) [Compound 454, 6-(2,8-dimethylimidazo[1,2-b]pyridazin-6-yl)-8-fluoro-2-(4-azaspiro[2.5]octan-7-yl)-[1,2,4]triazolo[1,5-a]pyridine] stands 100 to 1000 nM; under `Cc1cn2nc(-c3cc(F)c4nc([C@H]5[C@@H]6CNC[C@@H]65)oc4c3)cc(C)c2n1` [Compound 455, 2-((1R,5S,6r)-3-azabicyclo[3.1.0]hexan-6-yl)-6-(2,8-dimethylimidazo[1,2-b]pyridazin-6-yl)-4-fluorobenzo[d]oxazole], 100 to 1000 nM.

The record behind these values is patent US20250353841A1 (BIOGEN MA INC., priority 2022, published 2025).
